# Test results published in patent US20230226230A1, “THIOPURINE-BASED COMPOUND, COMPOSITION, METHOD OF PREPARATION AND APPLICATIONS” (SEECURE TAIWAN CO., LTD., priority 2021, published 2023).
# “Also recorded” adds a separate entry of the source.
# Experiments:
# [1] = system: various human lymphoma cells (mantle cell lines); experiment: In vitro MTT cytotoxicity assay, human lymphoma cells; format: cell-based
# Excerpt: (§1) Effect of Compound SC-06-K analogues were selected to test their feasibility against representative mantle cell lines and diffuse large B-cell lymphoma (DLBCL) cell lines using cell viability assays.
# [2] = system: human diffuse large B-cell lymphoma cells; experiment: In vitro MTT cytotoxicity assay, DLBCL cells; format: cell-based; conditions: various human diffuse large B-cell lymphoma cells
# Excerpt: as §1
# MDA-MB-231 tumors = experiment: Imaging of nude mice bearing breast tumors, MDA-MB-231 tumor; conditions: MDA-MB-231, at 0.5 hrs
# MCF-7 tumors = experiment: Imaging of nude mice bearing breast tumors, MCF-7 tumor; conditions: MCF-7, at 0.5 hrs
SMILES,MTT cytotoxicity [1],MTT cytotoxicity [2],Tumor/muscle count density ratios (MDA-MB-231 tumors),Tumor/muscle count density ratios (MCF-7 tumors)
"Cn1cnc([N+](=O)[O-])c1Sc1ncnc2c1ncn2CC(O)CN1CCNCCNCCNCC1 (stereo not shown) [SC-06-K-1, Cyclen-Hydroxypropyl-Azathioprine Conjugate]",inhibited cancer cells in dose-dependent manners; also recorded: inhibited cancer cells in a dose-dependent manner,inhibited various human diffuse large B-cell lymphoma cells in a dose-dependent manner; also recorded: inhibited cancer cells in a dose-dependent manner,,
"OC[C@H]1OC(O)[C@H]([18F])[C@@H](O)[C@@H]1O (stereo partly shown) [^18F-FDG, 2′-fluorodeoxyglucose]",,,0.25,0.28
